How the values were obtained:
[1] = molecular target: T1, Polycomb protein chromodomain (Drosophila melanogaster, UniProt P26017); assay: Peptide microarray binding of GST-tagged Polycomb chromodomain; parameters: dose or concentration left out as unconfirmed; conditions: Binder if at least two of three spots pass p-value cutoff 0.001 from background
T1 construct: The chromodomain (a.a. 1-90) of Polycomb protein was expressed as GST-tagged fusion protein; made in house
T1 sequence (P26017 1-90): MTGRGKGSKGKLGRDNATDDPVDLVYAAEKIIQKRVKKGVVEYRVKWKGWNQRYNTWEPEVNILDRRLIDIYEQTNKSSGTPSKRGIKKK
From the text: There are a total of 46 histone peptide sequences (9 a.a. long) with a single lysine-trimethylation site which are conserved between the human and fruit fly H2, H3 and H4 proteins (Table II). These were screened for Polycomb protein chromodomain binding by peptide microarray. Each peptide sequence was screened as triplets, and the fluorescence intensity was quantified with background subtraction individually for each spot from the microarray images by ImageJ^9 and the whole data set was fit to a mixed Gaussian distribution model (FIG. 8, Table III).
Twelve out of the 46 sequences were identified as positive binders under these criteria. Ten of these microarray-identified binders also yielded high mutation matrix score in an independent prediction (Table IV).
The chromodomain (a.a. 1-90) of Polycomb protein was expressed as GST-tagged fusion protein and purified as described in [65]. The purity of the protein was examined by SDS-PAGE electrophoresis followed by both Coomassie staining and western blot using an Anti-GST-HRP conjugate (Santa Cruz Biotechnology). The concentration of purified protein was determined by BCA assay (Amresco). A total of 46 trimethylated histone peptides were synthesized by Sigma Aldrich (desalted, mass spectrometry checked). The peptides were then printed as triplets onto glass slides (ArrayIt), together with a Cy3 marker and an anti-GST (mouse monoclonal) antibody (Thermo) as references.
The peptide microarray was rinsed with TBST buffer (25 mM Tris, 125 mM NaCl, 0.05% Tween-20, pH 8) followed by blocking with 5% non-fat milk in TBST (room temperature 1 hour or 4° C. overnight). The slide was then incubated at 4° C. with Polycomb-GST fusion protein at a final concentration of […] in 5% non-fat milk/TBST for 6 hours. After washing three times for 10 minutes each with TBST, the slide was incubated with an anti-GST mouse monoclonal IgG antibody (Thermo) at a final concentration of 1 μg/mL in 5% non-fat milk/TBST and shaken gently for 1 hour at room temperature. A secondary anti-mouse IgG Dylight-488 conjugated antibody (Thermo) was added to a final concentration of 0.1 μg/mL after three more cycles of 10 minutes washing with TBST. The slide was shaken for 1 hr at room temperature and washed three times with TBST.
The dried microarray slides were scanned using a Hamamatsu NanoZoomer 2.0HT Slide Scanning System (Neuroscience Light Microscopy Facility, UCSD). Data quantification were processed using the microarray processing software ImageJ^9, where the fluorescent intensity of a microarray spot was defined as its own intensity minus the background intensity around it on the scanned image.

[2] = molecular target: T2, Polycomb (Drosophila melanogaster, UniProt P26017); conditions: from reference 2; read-out: Experimental dissociation constant; cited from earlier work
T2 sequence (P26017 1-390): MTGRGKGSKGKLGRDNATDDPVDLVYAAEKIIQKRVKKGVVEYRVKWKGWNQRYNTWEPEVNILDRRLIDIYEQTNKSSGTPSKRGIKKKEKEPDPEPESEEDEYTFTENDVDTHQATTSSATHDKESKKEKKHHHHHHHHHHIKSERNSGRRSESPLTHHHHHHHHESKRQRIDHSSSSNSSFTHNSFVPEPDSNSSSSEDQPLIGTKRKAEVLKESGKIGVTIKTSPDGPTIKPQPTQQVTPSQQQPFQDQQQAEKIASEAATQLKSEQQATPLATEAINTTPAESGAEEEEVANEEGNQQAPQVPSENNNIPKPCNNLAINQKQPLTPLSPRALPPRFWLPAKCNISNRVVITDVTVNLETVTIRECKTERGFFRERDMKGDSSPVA

[3] = molecular target: Abl1 SH3 domain (Homo sapiens, UniProt P00519); assay: Peptide microarray binding of GST-Abl SH3 fusion protein (Cy3 fluorescence); conditions: peptides printed at 1 mg/ml in triplicates, GST-Abl SH3 5 μM
Experimental: The GST-tagged Abl SH3 domain fusion protein was purified as previously described (12). Protein concentration was determined using the Bradford Assay (Bio-Rad). The purity of the fusion protein was checked by electrophoresis on SDS-PAGE gel and coomassie blue staining. The fusion protein was also subjected to electrophoresis on SDS-PAGE gel, followed by Western blot using a horseradish peroxidase-conjugated anti-GST antibody (Santa Cruz Biotechnology) and the SuperSignal West chemiluminescent substrate (Pierce).
All peptides were synthesized by Sigma-Aldrich. The peptides were printed onto glass slides in triplicates by ArrayIt Corporation. […]
The peptide microarray was processed by the InnoScan 710 laser scanner (ArrayIt Corporation). Cy-3 fluorescence was detected using the 532 nm laser at 3 um resolution. The resulted microarray image was analyzed by the microarray image process software Mapix2.8.2 (ArrayIt Corporation). The fluorescent intensity of a microarray spot was defined as its own intensity minus the background intensity around it, as determined from the scanned image.
To print peptide microarrays, method of immobilizing the peptides on the glass surface, as well as the amount of peptide printed, needed to decide. […] Binding of GST-Abl SH3 to peptides generated a Cy3 fluorescent signal that was recorded on a laser scanner. […]

Chain of Abl1 SH3 domain (P00519 61-121 limits assumed): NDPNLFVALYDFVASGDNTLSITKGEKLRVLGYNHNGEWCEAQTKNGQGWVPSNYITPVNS

| Array Verification [1] | Sequence | Kd [2] [µM] | Average fluorescence intensity (high printing concentration) [3] |
| --- | --- | --- | --- |
| Binder | LATKAARKS [template histone H3 peptide L20 to S28 with trimethylated Lys27, reference compound] | 5 ± 1 |  |
|  | PPDPPPPPLP [10-residue peptide of SHIP2_HUMAN 1050-1059] |  | 58833 |
